We go through four molecules from US7361633B2, “Screening method and anti-tumor drug candidate obtained therefrom” (Ardana Bioscience Limited, priority 2002, dated 2008).

“Also recorded” adds a separate entry of the source.

For one experiment, the system named is p38α. Description: Phosphorylation of immunoprecipitated myc-p38α in BPH-1 cells. As to conditions: for activation (phosphorylation) of myc-p38α / effect of PTX pre-exposure on p38α activation: BPH-1 cells; for activation (phosphorylation) of myc-p38α: 100 nM; for effect of PTX pre-exposure on p38α activation: PTX 16 h 200 ng/ml. It is filed as cell-based, human. How it is done:
The activation of two other forms of mitogen-activated protein kinase (MAPK) was studied in JEG-3 and BPH-1 cells by overexpressing myc-tagged constructs of JNK2 or p38α. Immunoprecipitation of these constructs after GnRHR-ligand stimulation of either cell line allowed the degree of kinase activation to be assessed using antisera specific for the active, phosphorylated, form of the kinase. […] In both panel a and b, the dose of GnRH I employed was 100 nM. The respective histograms in each panel represent the mean±s.e. mean of three experimental replicate time courses.
The histogram below depicts the mean±s.e. mean of three experimental replicates of the above western blot. […] The histograin below depicts the mean±s.e. mean of three experimental replicates of the above western blot.
Stimulation of JNK in JEG-3 cells and p38 in BPH-1 cells and its sensitivity to pre-exposure to PTX was assessed by measuring the degree of activating phosphorylation of immunoprecipitated myc-JNK2 or myc-p38α. […] The histograms in panels b and c depict the mean±s.e. mean of three experimental replicates of the above western blot (panel a) experiments. Panel d depicts an identical experiment to that in panel a except that it is the phosphorylation status of immunoprecipitated myc-p38α that is being measured. […] The histograms in panels e and f depict the mean±s.e. mean of three experimental replicates of the above western blot (panel d) experiments.
To further investigate the validity of the observed SAPK activation we transfected the tumour cell lines with myc-tagged JNK2 or p38α MAPK isoforms, stimulated the cells with GnRH and then immunoprecipitated with anti-myc sera and western blotted the immunoprecipitates for total JNK/p38 protein and active JNK/p38.

In the next experiment the test system is ERK1/2. The experiment is described as follows: ERK1/2 phosphorylation immunoblot in BPH-1 cells. Type of experiment: cell-based, human. The settings on record: for extent of ERK1/2 activation: FIG. 5 panel c. From the text:
The panel depicts a representative anti-phospho-ERK1/2 w-c lysate immunoblot of stimulated BPH-1 cell extracts. […] Each bar of the histogram represents the mean±s.e. mean of three to four experimental replicates. […] Panel c) depicts the extent of ERK1/2 activation in BPH-1 cells induced by stimulation with GnRH I, II, Ant 135-25 and Ant 135-18. […] Each bar of the histogram represents the mean± s.e. mean of three to four experimental replicates.

A further experiment deals with PLC-β. Description: Inositol phosphate accumulation in BPH-1 cells. It is filed as cell-based, human. The settings on record: for inositol phosphate accumulation: 60 minutes, 10 mM LiCl, doses up to 50 μM. How it is done:
BPH-1 cells were pre-incubated with ^3H-myoinositol (1 μCi/ml) for 48 h prior to ligand stimulation (60 minutes). Ligand stimulated inositol phosphate production was measured in the presence of 10 mM LiCl. […] IP accumulation can be used as a read out/marker for Gαq activation since the activation of PLCβ is PTX-resistant.

The target of the next experiment is T1, Type I GnRH receptor (Rattus norvegicus, UniProt P30969).
T1 construct: expressed in transfected cells
T1 sequence (P30969 1-327): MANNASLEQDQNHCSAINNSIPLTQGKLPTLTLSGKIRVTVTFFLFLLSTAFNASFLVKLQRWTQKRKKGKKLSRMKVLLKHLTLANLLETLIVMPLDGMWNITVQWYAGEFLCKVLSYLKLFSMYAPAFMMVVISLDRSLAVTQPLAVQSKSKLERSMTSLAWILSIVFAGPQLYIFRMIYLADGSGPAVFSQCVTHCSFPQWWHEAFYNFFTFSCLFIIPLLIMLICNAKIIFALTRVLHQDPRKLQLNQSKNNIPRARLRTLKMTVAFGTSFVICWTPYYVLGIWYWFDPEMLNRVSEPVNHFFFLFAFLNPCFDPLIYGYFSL
Description: Inositol phosphate accumulation in SCL60 (HEK293) cells. Type of experiment: cell-based. As to conditions: GnRH I 10 nM. How it is done:
The histograms in panels a and b represent inositol phosphate accumulation data from HEK293 cells stably expressing the Type I GnRH receptor only (SCL60). […] In panels c and d, the liberated inositol phosphates generated were measured in the proto-gonadotrope cells (αT4) stably expressing the marmoset Type II GnRH receptor (designated αT4-II).
The ability of the four major agents under study at activating ectopically expressed Type I or Type II GnRHR were tested (FIG. 12). The classical signal transduction cascade activated by GnRHR stimulation is the Gαq-PLC-β cascade. Both Type I and II receptor can stimulate the Gαq-PLC type-G-protein and activate PLC-β which cleaves phosphatidylinositol bisphosphate (PIP2) into inositol trisphosphate (IP3), other lower inositol phosphates (IPn) and diacylglycerol (DAG). The major function of IP3 is to elevate intracellular Ca^2+ while DAG causes the activation of specific PKC (protein kinase C) isoforms.
Panels a and b of FIG. 12 depict the generation of free cytoplasmic ^3H-myo-inositols on the plasma membranes of HEK293 cells expressing the Type I GnRHR and of αT4 gonadotropes expressing the marmoset Type II GnRHR. Prior to agonist stimulation the respective cells were incubated in inositol-free growth media supplemented with 1 μCi/ml ^3H-myoinositol for 48 h. G protein coupled receptor (GPCR)-induced activation of PLC-β results in the cleavage of PIP2 (incorporating tritium ^3H) into free lower inositol phosphates (IPns).

A further experiment has as its system Gαi-type G protein. The experiment is described as follows: Inhibition of forskolin-stimulated cAMP accumulation in BPH-1 cells. It is filed as cell-based, human. As to conditions: for FSK-stimulated intracellular cAMP accumulation after ligand pre-exposure: 100 nM, pre-exposure 10, 30, 60 minutes; for effect of PTX on ligand-mediated inhibition of FSK-stimulated cAMP accumulation: 60 minute pre-exposure, PTX 200 ng/ml 16 h. From the text:
In both BPH-1 and JEG-3 cells GnRH and Ant 135-25 can antagonize forskolin (FSK) stimulated intracellular cAMP accumulation. Panels a and b respectively depict the effects of FSK, GnRH I and Ant 135-25 upon intracellular levels of cAMP in BPH-1 and JEG-3 cells measured using a calorimetric Biomol cAMP assay kit. […] Each histogram in panels a to d depicts the mean±s.e. mean of three to four experimental replicates of the cAMP accumulation assay.
Thus we noted that when cyclic adenosine monophosphate levels (cAMP) were measured using a commercially available […] assay system (Biomol) the ability of forskolin (1 μM in JEG-3 and 3 μM in BPH-1, sufficient to give a 50% Rmax response in each case) was blunted with extended cellular pre-treatment times (10 to 60 minutes) with either 100 nM GnRH I or Ant 135-25 (FIG. 9, panel a-BPH, panel b-JEG). […] Therefore it appears that both ligands can efficiently activate the adenylate cyclase inhibitory activity of Gαi in both cell models tested.

On to `C[S+]([O-])c1ccc(-c2nc(-c3ccncc3)c(-c3ccc(F)cc3)[nH]2)cc1` (stereo not shown) [SB203580], for which the “effect on GnRH-mediated activation of p38α” value in the experiment on p38α was “significantly blunted the GnRH-mediated activation of p38α”. The “effect on GnRH-mediated ERK activation” value with ERK1/2 (1 μM SB203580, data not shown) is “no significant effect”.

Turning to “Ac-D-Nal(2)-D-4-ClPhe-D-Pal-Ser-1-MePal-D-IsopropylLys-Leu-IsopropylLys-Pro-D-AlaNH2 [Ant 135-25]”, the “activation (phosphorylation) of myc-p38α” value with p38α was “effectively activate p38α”. Besides, in the experiment on p38α, the “effect of PTX pre-exposure on p38α activation” value is given as “acutely sensitive to the pre-exposure of PTX”. Also, the “extent of ERK1/2 activation” value with ERK1/2 is recorded as “A similar pattern to JEG-3 of ligand activation”. The inositol phosphate accumulation entry in the experiment with PLC-β is “only high doses of GnRH I and Ant 135-25 cause any significant accumulation of inositol phosphates; also recorded: small capacity to induce inositol phosphate accumulation”. Besides, the “agonistic activity: liberated inositol phosphates at Type I GnRH receptor” value (from here on “agonistic activity”) was “no classical agonistic activity is demonstrated” on Type I GnRH receptor, “no IPn-generating capacity” at Type I GnRH receptor (listed as 135-25), “demonstrate no partial agonistic activity” at Type I GnRH receptor (listed as Ant135-25) and “failed to generate significant free inositol phosphate” at Type I GnRH receptor (listed as antagonist 135-25). The “FSK-stimulated intracellular cAMP accumulation after ligand pre-exposure” value in the experiment with Gαi-type G protein is on record as “significantly reduced; also recorded: blunted”. In the experiment with Gαi-type G protein, the “effect of PTX on ligand-mediated inhibition of FSK-stimulated cAMP accumulation” value is given as “can be specifically inhibited with a 16 h pre-incubation of the cells with 200 ng/ml of PTX; also recorded: attenuated by a 16 h pre-treatment with 200 ng/ml PTX”.

On to “Ac-D-Nal(2)-D-4-ClPhe-D-Pal-Ser-Ile-D-IsopropylLys-Leu-IsopropylLys-Pro-D -AlaNH2 [Ant 135-18]”, for which the “activation (phosphorylation) of myc-p38α” value is on record as “does not” in the experiment on p38α and “dramatically lower efficacy than GnRH I or Ant 135-25” in the experiment with p38α (listed as Ant135-18). The “extent of ERK1/2 activation” value in the experiment on ERK1/2 was “A similar pattern to JEG-3 of ligand activation”; with ERK1/2 (listed as Ant135-18), “considerably less”. Besides, the “agonistic activity” value at Type I GnRH receptor is reported as “little classical agonistic capacity”; on Type I GnRH receptor (listed as 135-18), “no activation of the PLC-β signal at the Type I receptor evident”; at Type I GnRH receptor (listed as Ant135-18), “demonstrate no partial agonistic activity”.

As for “GnRH I: Gonadotropin-Releasing Hormone, a decapeptide; the original form of GnRH, re-named GnRH I”, in the experiment on p38α, the “activation (phosphorylation) of myc-p38α” value is given as “significant activation of myc-p38α; also recorded: effectively activate p38α; also recorded: protracted activation of the immunoprecipitated myc-p38α” and the “effect of PTX pre-exposure on p38α activation” value is recorded as “acutely sensitive to the pre-exposure of PTX”. Also, in the experiment with ERK1/2 (FIG. 5 panel a), the “ERK1/2 activation, dose dependence” value was “strong and dose-dependent activation of ERK1/2”. The “extent of ERK1/2 activation” value in the experiment on ERK1/2 was “A similar pattern to JEG-3 of ligand activation”. Moreover, the inositol phosphate accumulation result in the experiment with PLC-β is “only high doses of GnRH I and Ant 135-25 cause any significant accumulation of inositol phosphates; also recorded: small capacity to induce inositol phosphate accumulation”. The “effect of pertussis toxin pre-incubation on induced inositol phosphate accumulation” value in the experiment with PLC-β (PTX 200 ng/ml 16 h, GnRH I 50 μM) is recorded as “abrogated by a 16 h pre-incubation of the BPH-1 cells with 200 ng/ml of pertussis toxin”. Besides, the “agonistic activity” value in the experiment with Type I GnRH receptor was “yields an increase in free tritiated inositol phosphates; also recorded: significant increase in liberated inositol phosphates”. Also, in the experiment on Gαi-type G protein, the “FSK-stimulated intracellular cAMP accumulation after ligand pre-exposure” value is on record as “significantly reduced; also recorded: blunted” and the “effect of PTX on ligand-mediated inhibition of FSK-stimulated cAMP accumulation” value is given as “can be specifically inhibited with a 16 h pre-incubation of the cells with 200 ng/ml of PTX; also recorded: attenuated by a 16 h pre-treatment with 200 ng/ml PTX”.
